According to patent US10632174B2, “B7-H1 fusion polypeptides for treating and preventing organ failure” (Fraunhofer-Gesellschaft zur Förderung der angewandten …, priority 2015, dated 2020):

What was measured:
[1] = tested on: B7-H1 surface expression in Hepa1-6 cells (Nox4 inhibition); test: B7-H1 surface expression in Hepa1-6 cells by FACS; type: cell-based, murine; settings: 10 μM, 24 h, no further treatment, FIG. 8A
Method: FIG. 8: Inhibition of Nox4 enhances B7-H1 expression. Hepa1-6 cells were treated with the Nox4-specific inhibitor GKT137831 [10 μM] for 24 h. Afterwards, cells were harvested and B7-H1 expression was determined by FACS analysis. A quantification of five independent experiments is provided in (A). In liver homogenates of global NOX4 knockout mice B7-H1 protein expression was examined by Western blotting (B). A representative blot is shown. A quantification of B7-H1 expression (WT vs. NOX4-KO; n=5/5; *p<0.5) is provided in (C). B7-H1 expression on hepatocytes following polymicrobial sepsis initiation by cecal ligation and puncture (CLP) was studied in liver single cell suspensions by FACS-analysis gating for CD45-, i.e. non-immune cells as described in Materials and Methods. A quantification is shown (D), (sham vs. CLP, WT sham is set as 1; n=5/5/5/5; *p<0.5). Liver damage in global NOX4 knockout mice following CLP operation is assessed by looking at ALT/AST release into the serum, which is determined with a Reflotron Plus […] analyzer (E) (NOX4-KO; sham vs. CLP; n=5/5, *p<0.5). […]
All antibodies and secondary reagents were titrated to optimal concentrations. […] Surface expression of B7-H1 and B7-DC on the surface of primary hepatocytes was determined by FACS analysis, using anti-B7-H-PE or anti-B7-DC-PE. […]

[2] = tested on: B7-H1 expression in Hepa1-6 cells; test: B7-H1 mRNA (qPCR) and protein (Western) expression in Hepa1-6 cells; type: cell-based, murine; settings: 100 ng/ml LPS with 10 mM NAC, FIG. 7 vs FIG. 3B
Method: FIG. 3: B7-H1 expression in Hepa1-6 cells following LPS or LTA stimulation. Hepa1-6 cells were stimulated for the indicated times with 100 ng/ml LPS or 100 ng/ml LTA. Afterwards cells were harvested and mRNA was isolated or protein lysates were prepared as described in Materials and Methods. mRNA expression of B7-H1 (A) was analyzed by quantitative PCR. 18s rRNA was used as a house keeping gene. (B) B7-H1 protein expression following LPS stimulation was determined by Western analysis. All experiments were performed at least five times. Data represent the mean±SD (*p<0.5) or show a representative blot.
FIG. 7: B7-H1 expression was restored adding the GSH precursor N-acetyl-cysteine (NAC). Hepa1-6 cells were stimulated for the indicated times with 100 ng/ml LPS with 10 mM NAC. Afterwards cells were harvested and protein lysates were prepared as described in Materials and Methods. B7-H1 protein expression was determined by Western analysis. All experiments were performed at least five times. […]
LPS and LTA act via different Toll-like receptors (TLRs) on target cells i.e. TLR2 for LTA and TLR4 for LPS. […] To investigate whether a ROS-dependent mechanism was responsible for the reduction of B7-H1, ROS formation was determined in Hepa 1-6 cells treated with LPS alone or in combination with N-acetylcysteine (NAC). […]
B7-H1, B7-DC, PD-1, Fas and EGFP expression were analyzed by Western analysis. […]

Row | Structure (SMILES) | increase of B7-H1 surface expression [1] | B7-H1 protein expression [2]
1 | CN(C)c1cccc(-c2c3c(=O)n(-c4ccccc4Cl)[nH]c3cc(=O)n2C)c1 [GKT137S31] | roughly 50% | –
2 | CC(=O)N[C@@H](CS)C(=O)O [NAC, N-acetylcysteine] | – | restored expression of B7-H1
